Counter-ions that a name gives are not always drawn. Like-named read-outs stand apart in the source and are kept apart here.
Key:
[1] = tested on: guinea pig small intestine; assay: Spasmolytic effect on the guinea pig small intestine in situ (acetylcholine spasm); format: in vivo; conditions: for % Spasmolytic Effect / Spasmolytic activity (in words): alone; for % Spasmolytic Effect: negative value; for Spasmolytic activity (in words): intraduodenally
Description: A balloon catheter was introduced into the ileum of guinea pigs narcotized with urethane (1.8 g/kg subcutaneously) after tracheotomy (tying up a tracheal channel to make breathing easier) and the catheter filled with air. Rhythmic contractions were carried out by the intestine, the so-called […] (dependent upon filling), through which a pressure is exerted on the rubber balloon. The pressure […] changes were recorded on a linear recorder via a pressure recorder connected to the balloon catheter and a carrier frequency bridge (TF of Hellige Co.). On one there can be measured the spontaneous […], on the other the spasms released by superfusion of […] (acetylcholine iodide, barium chloride or carbachol). By previously giving the […] intravenously or intraduodenally the height of the spasms released is retarded and can be determined in percent spasmolysis compared to a starting value. There is given as spasmolytic effect or spasmolysis how great a percent of spasm is liberated by the spasmogen (e.g. acetylcholine iodide) compared to the value which originates from the spasmogen (on the same animal).

[2] = tested on: gastrointestinal passage (guinea pigs); assay: Carbon transport model (influence on the gastrointestinal passage); format: in vivo, guinea pig; conditions: alone; for ED50: peroral, linear regression; for Spasmolytic Effect, Retardation in %: negative value
Description: Relying on Komlus and Pet/o/ cz (and modifications) (1970) Arzneim Forsch. Volume 20, pages 1338-1357 guinea pigs received 30 minutes after being given the substance a 10% carbon suspension in demineralized water in a volume of 1 ml/animal dispensed with the stomach probe. 0.5 hours later the animals were killed and starting from the stomach there was measured on one animal the entire length of intestine, on the others the length of the stretch blackened by the carbon. The stretch changed by the carbon was calculated in percent of the entire length in order to compensate for the different intestinal lengths of the individual animals in the evaluation of the effect of the substance. The effect on the gastro-intestinal passage is given from the comparison between the control and the animals (average value) treated with the substances. Ascertaining the ED50 (dosage in mg/kg at which there is 50% retardation of the carbon transport) is by means of linear regression.
Retardation of carbon transport signifies spasmolytic effect. The greater this retardation the greater also is the spasmolytic effect.
*Calculation of the ED50 by means of linear regression

[3] = tested on: writhing syndrome (mouse); assay: Acetic acid test (Writhing test) on the mouse, analgetic effect; format: in vivo, NMRI-Mouse; conditions: alone; for ED50: Mus musculus, po, 0.5 h, read-out: ED50 after 30 minutes; for Analgetic Effect in %: average of 10 mice
[4] = tested on: gall bladder of the mouse; assay: Gall bladder model on the mouse, spasmolytic effect; format: in vivo, NMRI-Mouse; conditions: alone; for ED50: Mus musculus, po, peroral, linear regression
Description: The experiment is carried out relying on the methods of […] and Toson, J. Pharmacol. Methods Volume 7, pages 193 et. seq. (1982). The principle of this method is the gravimetric measurement of the gall bladder of the mouse. The gall bladder was stimulated through dispensation of egg yolk for delivery of bile. This delivery was carried out through natural spasms of the gall bladder. By previously dispensing a spasmolytically acting test material these spasms of the gall bladder were retarded and therewith likewise the delivery of bile. Thus the heavier the gall bladder is after dispensing the egg yolk the less bile it has delivered. The weight of the gall bladder in this test therefore is a measure of the spasmolytic effect of a material. […] The control animals received Methocel in the corresponding amount. […] Because of the evaluation 2 control groups must be present. […] The egg yolk suspension consisted of 3 parts by weight egg yolk in 7 parts by weight NaCl 0.9%. For this reason control group No. 1 also received 1 ml NaCl 0.9%. […] The gall bladder was prepared and weighed. The evaluation was carried out according to the formula: [(A-B)/(C-B)]×100=% Activity […]

in vivo = conditions: mouse, po

CCCC[N+]1(C)C2CC(OC(=O)C(CO)c3ccccc3)CC1C1OC12 (stereo not shown) [Butylscopolammonium bromide, butylscopolammonium bromide]
% Spasmolytic Effect ([1]; 50.0 mg/kg intraduodenally, 30 minutes after dispensation): -13.1%
% Spasmolytic Effect ([1]; 100.0 mg/kg intraduodenally, 30 minutes after dispensation): -37.9%
% Spasmolytic Effect ([1]; 200.0 mg/kg intraduodenally, 30 minutes after dispensation): -35.0%
Spasmolytic activity (in words) [1]: no dosage dependent spasmolytic activity
ED50 ([2]; Cavia porcellus, po, read-out: ED50): 132 mg/kg
Spasmolytic Effect, Retardation in % ([2]; 30.0 mg/kg peroral): -8.16%
Spasmolytic Effect, Retardation in % ([2]; 100.0 mg/kg peroral): -58.39%
Spasmolytic Effect, Retardation in % ([2]; 300.0 mg/kg peroral): -61.62%
ED50 ([3]; per os, linear regression): 1.5 mg/kg
Analgetic Effect in % ([3]; 0.5 mg/kg per os): 22.4%
Analgetic Effect in % ([3]; 1.0 mg/kg per os): 48.4%
Analgetic Effect in % ([3]; 2.0 mg/kg per os): 64.6%
Analgetic Effect in % ([3]; 4.0 mg/kg per os): 59.0%
ED50 [4]: 117 mg/kg
Spasmolytic Effect in % ([4]; 3.0 mg/kg peroral): 4.6%
Spasmolytic Effect in % ([4]; 10.0 mg/kg peroral): 19.1%
Spasmolytic Effect in % ([4]; 30.0 mg/kg peroral): 20.7%
Spasmolytic Effect in % ([4]; 100.0 mg/kg peroral): 35.9%
Spasmolytic Effect in % ([4]; 300.0 mg/kg peroral): 76.6%

CC[N+](C)(CC)CCOC(C)(c1ccccc1)C1CC2C=CC1C2.[Br-] (stereo not shown) [Ciclonium bromide]
Analgetic Effect in % ([3]; 0.01 mg/kg per os): 18.5%
Analgetic Effect in % ([3]; 0.1 mg/kg per os): 46.3%
Analgetic Effect in % ([3]; 0.5 mg/kg per os): 53.1%
ED50 after 30 minutes ([3]; per os, linear regression): 0.26 mg/kg

CCOC(=O)Nc1ccc(NCc2ccc(F)cc2)nc1N [Flupirtin (Gluconate), 2-amino-3-carbethoxyamino-6-(4-fluoro-benzylamino)-pyridine]
Analgetic Effect in % ([3]; 0.56 mg/kg per os): 19.2%
Analgetic Effect in % ([3]; 1.12 mg/kg per os): 28.0%
Analgetic Effect in % ([3]; 2.24 mg/kg per os): 37.6%
Analgetic Effect in % ([3]; 4.47 mg/kg per os): 46.4%
Analgetic Effect in % ([3]; 8.93 mg/kg per os): 38.4%
Analgetic Effect in % ([3]; 17.85 mg/kg per os): 22.4%
Analgetic Effect in % ([3]; 35.7 mg/kg per os): 61.6%

CCOC(=O)Nc1ccc(NCc2ccc(F)cc2)nc1N [Flupirtin (HCl), 2-amino-3-carbethoxyamino-6-(4-fluoro-benzylamino)-pyridine]
Spasmolytic Effect, Retardation in % ([2]; 20.0 mg/kg peroral): -11.73%
Spasmolytic Effect, Retardation in % ([2]; 40.0 mg/kg peroral): -21.55%
Spasmolytic Effect, Retardation in % ([2]; 80.0 mg/kg peroral): -18.70%
ED50 [2]: not dosage depen-
ED50 [4]: 2.4 mg/kg
Spasmolytic Effect in % ([4]; 1.0 mg/kg peroral): 30.06%
Spasmolytic Effect in % ([4]; 3.0 mg/kg peroral): 64.36%
Spasmolytic Effect in % ([4]; 10.0 mg/kg peroral): 69.25%

CCOC(=O)Nc1ccc(NCc2ccc(F)cc2)nc1N [Flupirtin (Maleate), 2-amino-3-carbethoxyamino-6-(4-fluoro-benzylamino)-pyridine]
Spasmolytic effect / ED50 (in words) ([1]; alone, 10.0, 30.0 and 50.0 mg/kg intraduodenally, 30 minutes after dispensation): no spasmolytic
ED50 ([3]; per os, linear regression): 44.7 mg/kg
Analgetic Effect in % ([3]; 20.0 mg/kg per os): 12.0%
Analgetic Effect in % ([3]; 40.0 mg/kg per os): 54.0%
Analgetic Effect in % ([3]; 80.0 mg/kg per os): 70.0%

CCOC(=O)Nc1ccc(NCc2ccc(F)cc2)nc1N [Flupirtin, 2-amino-3-carbethoxyamino-6-(4-fluoro-benzylamino)-pyridine]
Spasmolytic activity (in words) [1]: no spasmolytic activity
ED50 [2]: cannot be calculated
LD50 (in vivo): 552 mg/kg
